# pKi: −log10 of the molar value.
# Assays:
# [1] = target: T1, Vesicular acetylcholine transporter (Homo sapiens, UniProt Q16572); experiment: Binding affinity to VAchT
# T1 sequence (Q16572 whole entry): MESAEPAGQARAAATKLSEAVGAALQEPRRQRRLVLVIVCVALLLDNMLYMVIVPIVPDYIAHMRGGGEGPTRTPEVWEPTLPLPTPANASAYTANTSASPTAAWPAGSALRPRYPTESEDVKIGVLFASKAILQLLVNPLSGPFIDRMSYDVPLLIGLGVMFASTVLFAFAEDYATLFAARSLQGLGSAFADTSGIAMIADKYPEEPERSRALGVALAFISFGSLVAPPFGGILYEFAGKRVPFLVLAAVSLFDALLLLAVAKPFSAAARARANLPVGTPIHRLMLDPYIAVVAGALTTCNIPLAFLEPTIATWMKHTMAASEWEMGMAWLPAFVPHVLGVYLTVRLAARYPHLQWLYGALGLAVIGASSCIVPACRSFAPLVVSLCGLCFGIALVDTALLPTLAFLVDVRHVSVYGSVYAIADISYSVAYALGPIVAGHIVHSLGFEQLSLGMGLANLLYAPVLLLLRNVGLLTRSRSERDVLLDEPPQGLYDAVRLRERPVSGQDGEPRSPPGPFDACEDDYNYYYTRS
# [2] = target: T1, Vesicular acetylcholine transporter; experiment: Binding affinity to VAchT transfected in rat PC12 cells; format: cell-based, PC-12
# [3] = target: T2, Vesicular acetylcholine transporter (Rattus norvegicus, UniProt Q62666); experiment: Displacement of (-)-[3H]vesamicol from rat VAchT transfected in rat PC12 cells after 2 hrs by scintillation counting; format: cell-based, PC-12
# T2 sequence (Q62666 whole entry): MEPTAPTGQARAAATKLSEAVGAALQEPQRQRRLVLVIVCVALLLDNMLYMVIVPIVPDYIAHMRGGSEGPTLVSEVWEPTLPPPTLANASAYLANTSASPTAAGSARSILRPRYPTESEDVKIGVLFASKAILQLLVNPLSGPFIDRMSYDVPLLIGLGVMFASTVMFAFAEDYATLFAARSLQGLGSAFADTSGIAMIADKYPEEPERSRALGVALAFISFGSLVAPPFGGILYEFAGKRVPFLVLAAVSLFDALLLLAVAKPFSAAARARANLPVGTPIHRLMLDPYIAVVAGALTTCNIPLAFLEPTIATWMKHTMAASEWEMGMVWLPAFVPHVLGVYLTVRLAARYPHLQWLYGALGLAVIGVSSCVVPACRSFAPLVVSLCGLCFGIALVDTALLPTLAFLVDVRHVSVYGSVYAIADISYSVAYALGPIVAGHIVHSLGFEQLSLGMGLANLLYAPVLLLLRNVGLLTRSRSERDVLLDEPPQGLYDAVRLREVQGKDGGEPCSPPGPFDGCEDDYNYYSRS
Structure (SMILES),pKi [3],pKi [1],further results
CCN(C(=O)C[18F])c1cccc2c1C[C@@H](N1CCC(c3ccccc3)CC1)[C@H](O)C2,,9.49,
O=C(c1ccc([18F])cc1)N1CCOC2C[C@@H](O)[C@H](N3CCC(c4ccccc4)CC3)CC21 (mixture of isomers),,,pKi [2]: 7.56
O=C(c1ccc(F)cc1)c1cc2c([nH]1)C[C@@H](N1CCC(c3ccccc3)CC1)[C@H](O)C2 (racemic),6.51,,
O=C(c1ccc(F)cc1)c1cc2c([nH]1)C[C@@H](O)[C@H](N1CCC(c3ccccc3)CC1)C2 (racemic),5.14,,
O[C@@H]1CCN(Cc2ccc([18F])cc2)C[C@H]1N1CCC(c2ccccc2)CC1 (racemic),,9.36,

# From ChEMBL document CHEMBL1955760, “Pyrrolovesamicols--synthesis, structure and VAChT binding of two 4-fluorobenzoyl regioisomers” (Bioorg Med Chem Lett, 2012)
